The values below come from patent US12252524B2, “GIP/GLP1 co-agonist compounds” (Eli Lilly and Company, priority 2018, dated 2025).

Numbered stars: 1 amine (or outer) side, 2 acyl side, 3 side chain; on linkers, the order of the positions; unused ones are H or OH. Square brackets hold non-standard residues; d marks the D form. Side chains are listed from the residue outwards. Peptide text beside a SMILES is read from it. * marks the point of attachment. C20 diacid = O=C(O)CCCCCCCCCCCCCCCCCCC(=O)*; C18 diacid = O=C(O)CCCCCCCCCCCCCCCCC(=O)*; αMePhe(2-F) = C[C@](N)(Cc1ccccc1F)C(=O)O; C16 diacid = O=C(O)CCCCCCCCCCCCCCC(=O)*; γGlu = O=C(O)[C@H](CCC(=O)[*:2])N[*:1]; αMeL = CC(C)C[C@](C)(N)C(=O)O; Orn = NCCC[C@H](N)C(=O)O; Dab = NCC[C@H](N)C(=O)O; AEEA = NCCOCCOCC(=O)O; Aib = CC(C)(N)C(=O)O

Usually EC50 stands for the concentration at which the effect is half-maximal.

The target in assay [1] is human GLP-1 receptor (GLP-1R) (Homo sapiens, UniProt P43220). The assay is described as follows: cAMP pharmacological functional assay in presence of casein, hGLP-1R. It is filed as cell-based. The conditions noted are these: HEK293 cells expressing hGLP-1R, 0.1% Casein, geometric mean; read-out: hGLP1R cAMP Rel EC50 nM (SEM, n).
The target of assay [2] is T1, gastric inhibitory peptide receptor (GIPR) (Homo sapiens, UniProt P48546).
T1 sequence (P48546 22-466): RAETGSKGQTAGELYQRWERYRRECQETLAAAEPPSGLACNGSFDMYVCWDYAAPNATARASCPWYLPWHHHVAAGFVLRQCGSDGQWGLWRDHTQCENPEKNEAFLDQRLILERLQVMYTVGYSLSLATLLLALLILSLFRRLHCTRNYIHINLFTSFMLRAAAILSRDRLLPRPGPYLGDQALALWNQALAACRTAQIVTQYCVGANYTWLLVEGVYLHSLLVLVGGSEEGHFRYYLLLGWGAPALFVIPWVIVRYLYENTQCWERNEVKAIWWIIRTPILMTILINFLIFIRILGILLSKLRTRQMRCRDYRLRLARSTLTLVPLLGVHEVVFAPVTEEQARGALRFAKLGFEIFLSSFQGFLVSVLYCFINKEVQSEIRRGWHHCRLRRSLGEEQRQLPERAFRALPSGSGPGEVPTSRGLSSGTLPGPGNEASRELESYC
In words: cAMP pharmacological functional assay in presence of casein, hGIPR. The format is cell-based. Particulars: HEK293 cells expressing hGIPR, 0.1% Casein, geometric mean; read-out: hGIPR cAMP Rel EC50 nM (SEM, n).

human GLP-1 receptor (GLP-1R), sequence (P43220 24-463): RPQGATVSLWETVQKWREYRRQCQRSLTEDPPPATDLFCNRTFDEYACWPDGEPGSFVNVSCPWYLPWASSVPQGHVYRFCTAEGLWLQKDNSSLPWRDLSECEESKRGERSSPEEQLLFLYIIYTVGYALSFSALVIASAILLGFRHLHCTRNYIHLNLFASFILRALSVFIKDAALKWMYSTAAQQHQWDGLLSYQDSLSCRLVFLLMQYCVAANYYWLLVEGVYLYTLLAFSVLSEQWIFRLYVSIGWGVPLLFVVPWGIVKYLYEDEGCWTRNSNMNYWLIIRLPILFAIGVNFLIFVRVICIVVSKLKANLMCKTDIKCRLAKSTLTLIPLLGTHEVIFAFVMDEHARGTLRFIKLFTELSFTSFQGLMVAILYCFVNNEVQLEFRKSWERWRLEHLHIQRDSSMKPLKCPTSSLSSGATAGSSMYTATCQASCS

As for `CC[C@H](C)[C@H](NC(=O)[C@H](CC(C)C)NC(=O)[C@H](Cc1ccc(O)cc1)NC(=O)[C@@H](CCC(=O)O)NC(=O)[C@@H](NC(=O)[C@H](Cc1ccccc1)NC(=O)[C@@H](NC(=O)C(C)(C)NC(=O)[C@H](CCC(N)=O)NC(=O)[C@H](C)NC(=O)[C@H](CCCCNC(=O)COCCOCCNC(=O)COCCOCCNC(=O)CC[C@H](NC(=O)CCCCCCCCCCCCCCCCCCC(=O)O)C(=O)O)NC(=O)[C@H](CCC(=O)O)NC(=O)[C@H](CC(=O)O)NC(=O)[C@H](CC(C)C)NC(=O)[C@](C)(CC(C)C)NC(=O)[C@@H](NC(=O)[C@H](CO)NC(=O)[C@H](Cc1c[nH]cn1)NC(=O)[C@H](CC(=O)O)NC(=O)[C@H](CO)NC(=O)[C@@H](NC(=O)[C@](C)(Cc1ccccc1F)NC(=O)[C@@H](NC(=O)CNC(=O)[C@H](CCC(=O)O)NC(=O)C(C)(C)NC(=O)[C@@H](N)Cc1ccc(O)cc1)[C@@H](C)O)[C@@H](C)O)[C@@H](C)CC)[C@@H](C)O)[C@@H](C)CC)C(=O)N[C@@H](CCC(=O)O)C(=O)NCC(=O)NCC(=O)N1CCC[C@H]1C(=O)N[C@@H](CO)C(=O)N[C@@H](CO)C(=O)NCC(N)=O` [Example 167] (H-Y[Aib]EGT[αMePhe(2-F)]TSDHSI[αMeL]LDEK([AEEA-AEEA-γGlu-C20 diacid])AQ[Aib]TFI[dE]YLIEGGPSSG-NH2), the concentration for a half-maximal effect (EC50) was found to be 1.2 nM in assay [1] and 0.617 nM in assay [2].
For the compound `CC[C@H](C)[C@H](NC(=O)[C@H](CC(C)C)NC(=O)[C@H](Cc1ccc(O)cc1)NC(=O)[C@@H](CCC(=O)O)NC(=O)[C@@H](NC(=O)[C@H](Cc1ccccc1)NC(=O)[C@@H](NC(=O)C(C)(C)NC(=O)[C@H](CCC(N)=O)NC(=O)[C@H](C)NC(=O)[C@H](CCCCNC(=O)COCCOCCNC(=O)COCCOCCNC(=O)CC[C@H](NC(=O)CCCCCCCCCCCCCCCCCCC(=O)O)C(=O)O)NC(=O)[C@H](CCC(=O)O)NC(=O)[C@H](CC(=O)O)NC(=O)[C@H](CC(C)C)NC(=O)[C@](C)(CC(C)C)NC(=O)[C@@H](NC(=O)[C@H](CO)NC(=O)[C@H](Cc1c[nH]cn1)NC(=O)[C@H](CC(=O)O)NC(=O)[C@H](CO)NC(=O)[C@@H](NC(=O)[C@](C)(Cc1ccccc1F)NC(=O)[C@@H](NC(=O)CNC(=O)[C@H](CCC(=O)O)NC(=O)C(C)(C)NC(=O)[C@@H](N)Cc1ccc(O)cc1)[C@@H](C)O)[C@@H](C)O)[C@@H](C)CC)[C@@H](C)O)[C@@H](C)CC)C(=O)N[C@@H](CCC(=O)O)C(=O)NCC(=O)NCC(=O)N1CCC[C@H]1C(=O)N[C@@H](CO)C(=O)N[C@@H](CO)C(=O)NCC(=O)N[C@@H](C)C(=O)N1CCC[C@H]1C(=O)N1CCC[C@H]1C(=O)N1CCC[C@H]1C(=O)N[C@@H](CO)C(N)=O` [Example 168] (H-Y[Aib]EGT[αMePhe(2-F)]TSDHSI[αMeL]LDEK([AEEA-AEEA-γGlu-C20 diacid])AQ[Aib]TFI[dE]YLIEGGPSSGAPPPS-NH2), the half-maximal effective concentration (EC50) was found to be 1.8 nM in assay [1] and 0.572 nM in assay [2].
The corresponding values for `CC[C@H](C)[C@H](NC(=O)[C@H](CC(C)C)NC(=O)[C@H](Cc1ccc(O)cc1)NC(=O)[C@@H](CCC(=O)O)NC(=O)[C@@H](NC(=O)[C@H](Cc1ccccc1)NC(=O)[C@@H](NC(=O)C(C)(C)NC(=O)[C@H](CCC(N)=O)NC(=O)[C@H](C)NC(=O)[C@H](CCCCNC(=O)COCCOCCNC(=O)COCCOCCNC(=O)CC[C@H](NC(=O)CCCCCCCCCCCCCCCCC(=O)O)C(=O)O)NC(=O)[C@H](CCC(=O)O)NC(=O)[C@H](CC(=O)O)NC(=O)[C@H](CC(C)C)NC(=O)[C@](C)(CC(C)C)NC(=O)[C@@H](NC(=O)[C@H](CO)NC(=O)[C@H](Cc1c[nH]cn1)NC(=O)[C@H](CC(=O)O)NC(=O)[C@H](CO)NC(=O)[C@@H](NC(=O)[C@](C)(Cc1ccccc1F)NC(=O)[C@@H](NC(=O)CNC(=O)[C@H](CCC(=O)O)NC(=O)C(C)(C)NC(=O)[C@@H](N)Cc1ccc(O)cc1)[C@@H](C)O)[C@@H](C)O)[C@@H](C)CC)[C@@H](C)O)[C@@H](C)CC)C(=O)N[C@@H](CCC(=O)O)C(=O)NCC(=O)NCC(=O)N1CCC[C@H]1C(=O)N[C@@H](CO)C(=O)N[C@@H](CO)C(=O)NCC(=O)N[C@@H](C)C(=O)N1CCC[C@H]1C(=O)N1CCC[C@H]1C(=O)N1CCC[C@H]1C(=O)N[C@@H](CO)C(N)=O` [Example 169] (H-Y[Aib]EGT[αMePhe(2-F)]TSDHSI[αMeL]LDEK([AEEA-AEEA-γGlu-C18 diacid])AQ[Aib]TFI[dE]YLIEGGPSSGAPPPS-NH2) are 3.37 nM and 0.86 nM.
On to `CC[C@H](C)[C@H](NC(=O)[C@H](CC(C)C)NC(=O)[C@H](Cc1ccc(O)cc1)NC(=O)[C@@H](CCC(=O)O)NC(=O)[C@@H](NC(=O)[C@H](Cc1ccccc1)NC(=O)[C@@H](NC(=O)C(C)(C)NC(=O)[C@H](CCC(N)=O)NC(=O)[C@H](C)NC(=O)[C@H](CCCCNC(=O)COCCOCCNC(=O)COCCOCCNC(=O)CC[C@H](NC(=O)CCCCCCCCCCCCCCC(=O)O)C(=O)O)NC(=O)[C@H](CCC(=O)O)NC(=O)[C@H](CC(=O)O)NC(=O)[C@H](CC(C)C)NC(=O)[C@](C)(CC(C)C)NC(=O)[C@@H](NC(=O)[C@H](CO)NC(=O)[C@H](Cc1c[nH]cn1)NC(=O)[C@H](CC(=O)O)NC(=O)[C@H](CO)NC(=O)[C@@H](NC(=O)[C@](C)(Cc1ccccc1F)NC(=O)[C@@H](NC(=O)CNC(=O)[C@H](CCC(=O)O)NC(=O)C(C)(C)NC(=O)[C@@H](N)Cc1ccc(O)cc1)[C@@H](C)O)[C@@H](C)O)[C@@H](C)CC)[C@@H](C)O)[C@@H](C)CC)C(=O)N[C@@H](CCC(=O)O)C(=O)NCC(=O)NCC(=O)N1CCC[C@H]1C(=O)N[C@@H](CO)C(=O)N[C@@H](CO)C(=O)NCC(=O)N[C@@H](C)C(=O)N1CCC[C@H]1C(=O)N1CCC[C@H]1C(=O)N1CCC[C@H]1C(=O)N[C@@H](CO)C(N)=O` [Example 170] (H-Y[Aib]EGT[αMePhe(2-F)]TSDHSI[αMeL]LDEK([AEEA-AEEA-γGlu-C16 diacid])AQ[Aib]TFI[dE]YLIEGGPSSGAPPPS-NH2), for which the EC50 in assay [1] came to 10.4 nM; in assay [2], 0.569 nM.
For `CC[C@H](C)[C@H](NC(=O)[C@H](CC(C)C)NC(=O)[C@H](Cc1ccc(O)cc1)NC(=O)[C@@H](CCC(=O)O)NC(=O)[C@@H](NC(=O)[C@H](Cc1ccccc1)NC(=O)[C@@H](NC(=O)C(C)(C)NC(=O)[C@H](CCC(N)=O)NC(=O)[C@H](C)NC(=O)[C@H](CCCCNC(=O)COCCOCCNC(=O)COCCOCCNC(=O)CC[C@H](NC(=O)CCCCCCCCCCCCCCCCCCC(=O)O)C(=O)O)NC(=O)[C@H](CCCN)NC(=O)[C@H](CC(=O)O)NC(=O)[C@H](CC(C)C)NC(=O)[C@](C)(CC(C)C)NC(=O)[C@@H](NC(=O)[C@H](CO)NC(=O)[C@H](Cc1c[nH]cn1)NC(=O)[C@H](CC(=O)O)NC(=O)[C@H](CO)NC(=O)[C@@H](NC(=O)[C@](C)(Cc1ccccc1F)NC(=O)[C@@H](NC(=O)CNC(=O)[C@H](CCC(=O)O)NC(=O)C(C)(C)NC(=O)[C@@H](N)Cc1ccc(O)cc1)[C@@H](C)O)[C@@H](C)O)[C@@H](C)CC)[C@@H](C)O)[C@@H](C)CC)C(=O)N[C@@H](CCC(=O)O)C(=O)NCC(=O)NCC(=O)N1CCC[C@H]1C(=O)N[C@@H](CO)C(=O)N[C@@H](CO)C(=O)NCC(=O)N[C@@H](C)C(=O)N1CCC[C@H]1C(=O)N1CCC[C@H]1C(=O)N1CCC[C@H]1C(=O)N[C@@H](CO)C(N)=O` [Example 171] (H-Y[Aib]EGT[αMePhe(2-F)]TSDHSI[αMeL]LD[Orn]K([AEEA-AEEA-γGlu-C20 diacid])AQ[Aib]TFI[dE]YLIEGGPSSGAPPPS-NH2), the EC50 in assay [1] was determined as 0.75 nM; in assay [2], 0.223 nM.
For `CC[C@H](C)[C@H](NC(=O)[C@H](CC(C)C)NC(=O)[C@H](Cc1ccc(O)cc1)NC(=O)[C@@H](CCC(=O)O)NC(=O)[C@@H](NC(=O)[C@H](Cc1ccccc1)NC(=O)[C@@H](NC(=O)C(C)(C)NC(=O)[C@H](CCC(N)=O)NC(=O)[C@H](C)NC(=O)[C@H](CCCCNC(=O)COCCOCCNC(=O)COCCOCCNC(=O)CC[C@H](NC(=O)CCCCCCCCCCCCCCCCCCC(=O)O)C(=O)O)NC(=O)[C@H](CCN)NC(=O)[C@H](CC(=O)O)NC(=O)[C@H](CC(C)C)NC(=O)[C@](C)(CC(C)C)NC(=O)[C@@H](NC(=O)[C@H](CO)NC(=O)[C@H](Cc1c[nH]cn1)NC(=O)[C@H](CC(=O)O)NC(=O)[C@H](CO)NC(=O)[C@@H](NC(=O)[C@](C)(Cc1ccccc1F)NC(=O)[C@@H](NC(=O)CNC(=O)[C@H](CCC(=O)O)NC(=O)C(C)(C)NC(=O)[C@@H](N)Cc1ccc(O)cc1)[C@@H](C)O)[C@@H](C)O)[C@@H](C)CC)[C@@H](C)O)[C@@H](C)CC)C(=O)N[C@@H](CCC(=O)O)C(=O)NCC(=O)NCC(=O)N1CCC[C@H]1C(=O)N[C@@H](CO)C(=O)N[C@@H](CO)C(=O)NCC(=O)N[C@@H](C)C(=O)N1CCC[C@H]1C(=O)N1CCC[C@H]1C(=O)N1CCC[C@H]1C(=O)N[C@@H](CO)C(N)=O` [Example 172] (H-Y[Aib]EGT[αMePhe(2-F)]TSDHSI[αMeL]LD[Dab]K([AEEA-AEEA-γGlu-C20 diacid])AQ[Aib]TFI[dE]YLIEGGPSSGAPPPS-NH2; N-terminus assumed) the same measures were 1.2 nM and 1.05 nM.
